From patent US12109204B2, “Methods for treating muscular dystrophies” (The Regents of the University of California, priority 2018, dated 2024) come the findings set out here.

In one test the test system is MYOG, myogenin. Briefly: MYOG gene expression by qPCR in C2C12 wild-type myotubes. Conditions: 48 hours, normalized to β-actin (FIG. 12a). It is filed as cell-based, murine. As for the experimental part: RNA from myotubes treated for 48 hours was extracted from cells using Trizol-based (Thermo Fisher Scientific) phase separation. RNA concentrations were determined using a NanoDrop 1000 (Thermo Fisher Scientific) and 750 ng of RNA in a 20 μl reaction was reverse transcribed using iScript cDNA synthesis (Bio-Rad) with the following cycling conditions: 25° C. for 5 minutes, 42° C. for 30 minutes, 85° C. for 5 minutes. For quantitative PCR, SsoFast EvaGreen Supermix (Bio-Rad), 400 nM of each optimized forward and reverse primer (for primer descriptions see Table 1), and cDNA corresponding to 37.5 ng RNA were used to amplify cDNA measured by Applied Biosystems 7300 (Thermo Fisher Scientific) with the following reaction conditions: 55° C. for 2 minutes, 95° C. for 2 minutes, 40 cycles of 95° C. for 10 seconds and 62° C. for 30 seconds, and dissociation stage. Each sample was run in triplicate. Data was analyzed using the ddCT method and normalized to reference gene, GAPDH or β-actin, with vehicle-treated samples serving as the calibrator (relative expression of vehicle control=1). C2C12 cells (American Type Culture Collection) were grown at 37° C. with 5% CO2 in growth media containing DMEM (Gibco) with 20% FBS (Sigma-Aldrich). Upon reaching confluency, the media was replaced with differentiation media containing DMEM with 2% horse serum (Sigma-Aldrich). […]
Background: Quantitative PCR measures a nucleic acid by following its amplification.

The test system of the next test is SSPN, sarcospan. The experiment in a line: SSPN gene expression by qPCR in C2C12 wild-type myotubes. The class given is cell-based, murine. To be noted: 1-10 μM, 48 hours, normalized to β-actin (FIG. 10c). As for the experimental part: RNA from myotubes treated for 48 hours was extracted from cells using Trizol-based (Thermo Fisher Scientific) phase separation. RNA concentrations were determined using a NanoDrop 1000 (Thermo Fisher Scientific) and 750 ng of RNA in a 20 μl reaction was reverse transcribed using iScript cDNA synthesis (Bio-Rad) with the following cycling conditions: 25° C. for 5 minutes, 42° C. for 30 minutes, 85° C. for 5 minutes. For quantitative PCR, SsoFast EvaGreen Supermix (Bio-Rad), 400 nM of each optimized forward and reverse primer (for primer descriptions see Table 1), and cDNA corresponding to 37.5 ng RNA were used to amplify cDNA measured by Applied Biosystems 7300 (Thermo Fisher Scientific) with the following reaction conditions: 55° C. for 2 minutes, 95° C. for 2 minutes, 40 cycles of 95° C. for 10 seconds and 62° C. for 30 seconds, and dissociation stage. Each sample was run in triplicate. Data was analyzed using the ddCT method and normalized to reference gene, GAPDH or β-actin, with vehicle-treated samples serving as the calibrator (relative expression of vehicle control=1). C2C12 cells (American Type Culture Collection) were grown at 37° C. with 5% CO2 in growth media containing DMEM (Gibco) with 20% FBS (Sigma-Aldrich). Upon reaching confluency, the media was replaced with differentiation media containing DMEM with 2% horse serum (Sigma-Aldrich). Conditionally immortalized H2K mdx myoblast cells with a nonsense mutation in exon 23 of dystrophin were a gift from Terrance Partridge, Ph.D. (Children's National Medical Center, Washington, D.C.). Cells were allowed to proliferate on 0.01% gelatin (Sigma-Aldrich) coated plates at 33° C. with 5% CO2 with growth media containing DMEM, 20% HI-FBS (Invitrogen), 2% L-glutamine (Sigma-Aldrich), 2% chicken embryo extract (Accurate Chemical), 1% penicillin-streptomycin (Sigma-Aldrich), and 20U/ml of fresh interferon gamma (Gibco). For differentiation, H2K mdx myoblasts were seeded on plates coated with 0.1 mg/ml matrigel (Corning) diluted in DMEM and grown in proliferation conditions. […]

Take `CCOC(=O)C1=C(C)NC(C)=C(C(=O)OC)C1c1cccc(Cl)c1Cl` (stereo not drawn) [Felodipine, 5-O-ethyl 3-O-methyl 4-(2,3-dichlorophenyl)-2,6-dimethyl-1,4-dihydropyridine-3,5-dicarboxylate]: the myogenin gene expression entry with MYOG, myogenin is “increases”. Further, the “SSPN gene expression over vehicle” value with SSPN, sarcospan is recorded as “increases sarcospan gene expression”; in the test on SSPN, sarcospan (listed as felodipine) it was “increased over vehicle”.
